Measurements taken from publication PMC11233000, “Characterization of BrGH3A, a bovine rumen-derived glycoside hydrolase family 3 β-glucosidase with a permuted domain arrangement” (PLOS ONE, 2024).

Experiments:
[1] = system: T1, BrGH3A; assay: glucose release, glucose oxidase/ABTS; type: biochemical, metagenome: bovine ruminal fluid; conditions: 0.1 M sodium citrate, pH 5.0, 40°C, 5 min
T1 construct: C-FnIII-N domain order is natural
Source text: glucose release, glucose oxidase/ABTS on BrGH3A

[2] = system: T1, BrGH3A; assay: p-nitrophenol release, absorbance […] nm; type: biochemical, metagenome: bovine ruminal fluid; conditions: 0.1 M sodium citrate, pH 5.0, 40°C, 5 min
[3] = released glucose divided by two

Structure (SMILES) | Km [2] [mM] | other results
OC[C@H]1O[C@@H](O[C@H]2[C@H](O)[C@@H](O)C(O)O[C@@H]2CO)[C@H](O)[C@@H](O)[C@@H]1O (some centres unmarked) [Cellobiose] |  | Km [1, 3]: 30 ± 3.9 mM
OC[C@H]1O[C@@H](O[C@H]2[C@H](O)[C@@H](CO)OC(O)[C@@H]2O)[C@H](O)[C@@H](O)[C@@H]1O (some centres unmarked) [Laminaribiose] |  | Km [1, 3]: 14.3 ± 1.3 mM
OC[C@H]1O[C@@H](O[C@@H]2[C@@H](O)[C@H](O[C@H]3[C@H](O)[C@@H](CO)OC(O)[C@@H]3O)O[C@H](CO)[C@H]2O)[C@H](O)[C@@H](O)[C@@H]1O (some centres unmarked) [Laminaritriose] |  | Km ([1]; calculated as total released glucose): 5.4 ± 0.42 mM
O=[N+]([O-])c1ccc(O[C@@H]2OC[C@H](O)[C@H](O)[C@H]2O)cc1 [pNP-Ara, p-nitrophenyl-α-L-arabinopyranoside] | 9.95 ± 1.16 | 
C[C@H]1O[C@@H](Oc2ccc([N+](=O)[O-])cc2)[C@H](O)[C@@H](O)[C@H]1O [pNP-Fuc, p-nitrophenyl-β-D-fucopyranoside] | 7.96 ± 0.64 | 
O=[N+]([O-])c1ccc(O[C@@H]2O[C@H](CO)[C@H](O)[C@H](O)[C@H]2O)cc1 [pNP-Gal, p-nitrophenyl-β-D-galactopyranoside] | 7.55 ± 0.9 | 
O=[N+]([O-])c1ccc(O[C@@H]2O[C@H](CO)[C@@H](O)[C@H](O)[C@H]2O)cc1 [pNP-Glc, p-nitrophenyl-β-D-glucopyranoside] | 0.6 ± 0.04 | 
O=[N+]([O-])c1ccc(O[C@@H]2OC[C@@H](O)[C@H](O)[C@H]2O)cc1 [pNP-Xyl, p-nitrophenyl-β-D-xylopyranoside] | 2.12 ± 0.1 | 
